Format in all cases: cell-based
In assay [1] the test system is coronary artery smooth muscle cells (CASMC). As to the kind of experiment: Cell migration into scraped monolayer, CASMC (Example 5). To be noted: 1 and 10 mg/ml, 48 hours exposure then 72 hours growth. As for the experimental part:
In a similar manner, cell migration was explored in vitro by scraping the cell monolayer and culturing the cells in the presence of 5,6-dihydroxy-hexan-2-one at concentrations of 1 mg/ml and 10 mg/ml. FIGS. 20(a)-(l) are pictures that visually display the migration of coronary artery smooth muscle cells (CASMC) (FIGS. 20(a)-(f)) and normal human dermal fibroblast (NHDF) cells (FIGS. 20(g)-(l)) exposed to various concentrations of 5,6-dihydroxy-hexan-2-one after 48 hours exposure, then cultured an additional 72 hours after removal of the 5,6-dihydroxy-hexan-2-one as described in Example 5. Specifically, FIGS. 20(a) and (b) represent the CASMC control at time zero and 72 hours, respectively; FIGS. 20(c) and (d) represent CASMC (10 mg/ml) at time zero and 72 hours, respectively; and FIGS. 20(e) and (f) represent CASMC (1 mg/ml) at time zero and 72 hours, respectively. FIGS. 20(g) and (h) represent the NHDF cell control at time zero and 72 hours, respectively; FIGS. 20(i) and (j) represent NHDF cells (10 mg/ml) at time zero and 72 hours, respectively; and FIGS. 20(k) and (l) represent NHDF cells (1 mg/ml) at time zero and 72 hours, respectively.
Cell migration judged by the ability of cells to repopulate the scraped “acellular” space over time indicated no microscopically identifiable effect by the agent at the concentrations tested. […]

Assay [2] concerns human umbilical vein endothelial cells (HUVEC). As to the kind of experiment: Cell migration after 48 hours exposure, HUVEC (Example 6). Particulars: 10 mg/ml and 1 mg/ml. As for the experimental part: (§1) Evaluation of the effects of 5,6-dihydroxy-hexan-2-one on human umbilical vein endothelial cells (HUVEC) and Glioblastoma/Astrocytoma cells U87 cellular proliferation and migration during 120 hours following 48 hour exposure to 5,6-dihydroxy-hexan-2-one at concentration of 10 mg/ml, 1 mg/ml, 100 micrograms/ml. Controls were cells not exposed to the agent.
(§2) In order to further explore the effects of this compound, experiments to evaluate the dose-effect response on the antiproliferative effect and on cell migration were conducted on two cell lines, human umbilical vein endothelial cells (HUVEC) and Glioblastoma/Astrocytoma cells (U87), over 120 hours after 48 hours of exposure to the compound.
FIGS. 23(a)-(l) are pictures that visually display the migration over time of human umbilical vein endothelial cells (HUVEC) after 48 hours exposure to various concentrations of 5,6-dihydroxy-hexan-2-one. Specifically, FIGS. 23(a)-(d) represent the control, FIGS. 23(e)-(h) represent 10 mg/ml, and FIGS. 23(i)-(l) represent 1 mg/ml 5,6-dihydroxy-hexan-2-one. FIGS. 23(a), (e), and (i) represent migration after 2 hours; FIGS. 23(b), (f), and (j) represent migration after 14 hours; FIGS. 23(c), (g), and (k) represent migration after 20 hours; and FIGS. […], (h), and (l) represent migration after 48 hours.

The test system of assay [3] is human Glioblastoma/Astrocytoma U87 cells. As to the kind of experiment: Cell migration after 48 hours exposure, U87 (Example 6). Particulars: U87, 10 mg/ml and 1 mg/ml. As to the method:
as §1, §2
FIGS. 24(a)-(l) are pictures that visually display the migration over time of human Glioblastoma/Astrocytoma U87 cells after 48 hours exposure to various concentrations of 5,6-dihydroxy-hexan-2-one. Specifically, FIGS. 24(a)-(d) represent the control, FIGS. 24(e)-(h) represent 10 mg/ml, and FIGS. 24(i)-(l) represent 1 mg/ml 5,6-dihydroxy-hexan-2-one. FIGS. 24(a), (e), and (i) represent migration after 2 hours; FIGS. 24(b), (f), and (j) represent migration after 14 hours; FIGS. 24(c), (g), and (k) represent migration after 20 hours; and FIGS. […], (h), and (l) represent migration after 48 hours.

For assay [4], the system named is human umbilical vein endothelial cells (HUVEC). As to the kind of experiment: CyQuant cell proliferation after 48 hour exposure, HUVEC (Example 6). Particulars: for cell proliferation: 48 hour exposure. As for the experimental part: as §1, §2
A cell proliferation assay available under the trade designation CyQuant from Invitrogen Corporation (Carlsbad, Calif.) determines the density of cells in culture by using a green fluorescent dye which fluoresces when bound to cellular nucleic acids.

As to `CC(=O)CCC(O)CO` (stereo not drawn) [5,6-dihydroxy-hexan-2-one], the cell migration entry in assay [1] is listed as “not affected”; in assay [2], “did not shown differences”; in assay [3] it was “did not shown differences”. The results for the cell proliferation entry in assay [4] (10 mg/ml) and in assay [4] (lowest concentration evaluated (100 micrograms/ml)) were “antiproliferative effects” and “no antiproliferative effects”, respectively. For the same molecule, the “time after withdrawal at which inhibitory effect was still observed” value in assay [4] (10 mg/ml, after 48 hour exposure) is no less than 120 h.

Source of the values: US20090061515A1, “Methods of inhibiting or suppressing cellular proliferation” (priority 2007, published 2009).
